# According to patent US7514251B2, “O-methyltransferases of tetrahydrobenzylisoquinoline alkaloid biosynthesis in Papaver somniferum” (priority 2003, dated 2009):
# Like-named read-outs stand apart in the source and are kept apart here. Marks after values point to notes of the source that are not given here.
# How the values were obtained:
# [1] = target: T1, PSOMT2 ((R,S)-norcoclaurine 6-O-methyltransferase) (Papaver somniferum, UniProt Q6WUC1); assay: Radioassay of recombinant PSOMT2 with [methyl-3H]-AdoMet (substrate specificity, kinetics, pH and temperature optima); format: biochemical; settings: for Substrate specificity, relative activity of PSOMT2: 100% activity = 2.0 pmoles/sec/mg total protein, radioassay
# T1 construct: The full-length cDNA generated by RT-PCR was ligated into pFastBac HTa; His6 (N); made in house; host or cells: Spodoptera frugiperda Sf9 (baculovirus, pFastBac HTa)
# T1 sequence (Q6WUC1 1-346): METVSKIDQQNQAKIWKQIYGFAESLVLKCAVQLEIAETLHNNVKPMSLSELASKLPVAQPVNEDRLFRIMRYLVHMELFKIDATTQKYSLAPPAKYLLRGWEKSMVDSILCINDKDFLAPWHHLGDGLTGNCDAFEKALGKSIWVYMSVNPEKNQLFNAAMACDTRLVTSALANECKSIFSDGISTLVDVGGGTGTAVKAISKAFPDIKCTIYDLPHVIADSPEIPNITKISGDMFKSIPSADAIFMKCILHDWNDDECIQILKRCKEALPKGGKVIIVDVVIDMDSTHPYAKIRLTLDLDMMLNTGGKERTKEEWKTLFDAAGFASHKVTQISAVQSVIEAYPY
# From the text: (§1) Heterologous Expression and Enzyme Purification—The full-length cDNA generated by RT-PCR was ligated into pFastBac HTa that had been digested with restriction endonucleases BamHI and NotI. The recombinant plasmid was transposed into baculovirus DNA in the Escherichia coli strain DH10BAC (Life Technologies) and then transfected into Spodoptera frugiperda Sf9 cells according to the manufacturer's instructions. The insect cells were propagated and the recombinant virus was amplified according to (16,17). INSECT-XPRESS serum-free medium (Bio Whittaker) was used in the enzyme expression experiments.
# (§2) After infection of 20 ml suspension grown insect cells had proceded for 3-4 days at 28° C. and 130 rpm, the cells were removed by centrifugation under sterile conditions at 900× g for 5 min at 4° C. All subsequent steps were performed at 4° C. The pellet was discarded and to the medium was added 0.73 g NaCl, 2.5 ml glycerol and 50 μl […]-mercaptoethanol. The pH was adjusted to 7.0 with 1.0 M NaOH. The His-tagged O-methyltransferase was then purified by affinity chromatography using a cobalt resin (Talon, Clontech) according to the manufacturer's instructions.
# (§3) Enzyme assay and product identification: The O-methylation reactions catalysed by the two O-methyltransferases were assayed at least two times in duplicate according to Rüffer et al. (1983a; 1983b) as follows. Substrate (25 nmol), [methyl-3H]-AdoMet (20,000 dpm, 0.4 fmol), AdoMet (10 nmol) Tris/HC1 buffer pH 8.0 (10 μmol), ascorbate (5 μmol) and 5-10 μg of enzyme were incubated in a total volume of 150 μl at 35° C. for 5-60 min. The enzymic reaction was terminated by addition of 200 μl ethylacetate. The organic phase ([…]) was added to 3 ml high flash point liquid scintillation cocktail (Packard) and the radioactivity quantified with a Beckman LS6000TA liquid scintillation counter.
# (§4) General Methods—Total RNA was isolated and RNA gels were run and blotted as described previously (20). Genomic DNA was isolated and DNA gels were run and blotted according to (21). cDNA clones were labeled by PCR labeling with [[…]-^32P]dATP. Hybridized RNA on RNA gel blots and DNA on DNA gel blots were visualized with a STORM phosphor imager (Molecular Dynamics). The entire nucleotide sequence on both DNA strands of the full-length clone was determined by dideoxy cycle sequencing using internal DNA sequences for the design of deoxyoligonucleotides as sequencing primers. Saturation curves and double reciprocal plots were constructed with the Fig. P program Version 2.7 (Biosoft, Cambridge, UK). The influence of pH on enzyme activity was monitored in sodium citrate (pH 4-6), sodium phosphate (pH 6-7.0) and Tris-HCl (pH 7.0-9), glycine/NaOH (pH 9-10.5) buffered solutions.
# [2] = target: T2, PSOMT1 ((R,S)-reticuline 7-O-methyltransferase) (Papaver somniferum, UniProt Q6WUC2); format: biochemical
# T2 construct: The full-length cDNA generated by RT-PCR was ligated into pFastBac HTa; His6 (N); made in house; host or cells: Spodoptera frugiperda Sf9 (baculovirus, pFastBac HTa)
# From the text: as §1, §2, §3, §4
# [3] = 100% activity = 1.5 pmoles/sec/mg total protein, radioassay
# T2 sequence (Q6WUC2 whole entry): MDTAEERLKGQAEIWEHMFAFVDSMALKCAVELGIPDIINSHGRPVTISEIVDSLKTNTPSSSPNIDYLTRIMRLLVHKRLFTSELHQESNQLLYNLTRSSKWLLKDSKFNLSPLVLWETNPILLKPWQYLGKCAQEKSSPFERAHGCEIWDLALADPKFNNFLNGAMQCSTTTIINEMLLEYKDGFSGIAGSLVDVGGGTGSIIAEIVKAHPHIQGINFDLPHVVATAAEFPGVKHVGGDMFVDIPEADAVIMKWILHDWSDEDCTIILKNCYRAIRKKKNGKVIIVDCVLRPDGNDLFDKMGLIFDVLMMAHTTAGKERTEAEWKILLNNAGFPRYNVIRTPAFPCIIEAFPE
Structure (SMILES),"Substrate specificity, relative activity of PSOMT2 [1]","Substrate specificity, relative activity of PSOMT1 [2, 3]",further results
"COc1ccc(CC2NCCc3cc(OC)c(O)cc32)cc1 (racemic) [(R,S)-4′-O-methylcoclaurine]",0%,0%,–
"COc1cc2c(cc1O)C(Cc1ccc(O)c(O)c1)N(C)CC2 (racemic) [(R,S)-6-O-Methyllaudanosoline]",0%,0%,–
"COc1cc2c(cc1O)[C@H](Cc1ccc(OC)c(OC)c1)N(C)CC2 (racemic) [(R,S)-Codamine]",0%,0%,–
"COc1cc2c(cc1O)CCNC2Cc1ccc(O)cc1 (racemic) [(R,S)-Isococlaurine]",0%,0%,–
"COc1ccc(CC2c3cc(OC)c(OC)cc3CCN2C)cc1O (racemic) [(R,S)-Laudanidine]",0%,0%,–
"COc1cc2c(cc1O)C(Cc1ccc(O)cc1)N(C)CC2 (racemic) [(R,S)-N-Methylcoclaurine]",0%,0%,–
"Oc1ccc(CC2NCCc3cc(O)c(O)cc32)cc1 (racemic) [(R,S)-Norcoclaurine]",100^a %,0%,"Vmax Substrate ([1]; PSOMT2): 5 pmol/s; kcat Substrate ([1]; PSOMT2): 0.08 s⁻¹; Km ([1]; PSOMT2, co-substrate AdoMet with the named substrate, read-out: Km AdoMet): 100 µM; Km ([1]; PSOMT2, read-out: Km Substrate): 10 µM; pH range of methylation ([1]; PSOMT2, wide pH range): 6.0-9.0; methylated by PSOMT2 (radioassay, in words) ([1]; one of forty substrates tested): methylating"
"COc1cc(CC2NCCc3cc(OC)c(O)cc32)ccc1O (racemic) [(R,S)-Nororientaline]",0%,0%,–
COc1ccc2c(c1)CCN[C@@H]2Cc1ccc(OC)c(O)c1 [(R)-7-Dehydroxy-norreticuline],0%,0%,–
COc1ccc(C[C@H]2NCCc3cc(OC)c(O)cc32)cc1O [(R)-Norreticuline],0%,0%,–
COc1ccc(C[C@H]2c3cc(O)c(O)cc3CCN2C)cc1O [(S)-4′-O-Methyllaudanosoline],0%,0%,–
COc1ccc2c(c1)CCN[C@H]2Cc1ccc(OC)c(O)c1 [(S)-7-Dehydroxy-norreticuline],0%,0%,–
COc1cc2c(cc1O)[C@H](Cc1ccc(O)cc1)NCC2 [(S)-Coclaurine],0%,0%,–
COc1cc2c(cc1O)C[C@H]1c3cc(O)c(OC)cc3CCN1C2 [(S)-Coreximine],0%,0%,–
COc1ccc(C[C@@H]2NCCc3cc(OC)c(O)cc32)cc1O [(S)-Norreticuline],0%,0%,–
COc1cc2c(cc1O)[C@@H]1Cc3ccc(OC)c(O)c3CN1CC2 [(S)-Scoulerine],0%,0%,–
O=C(O)/C=C/c1ccc(O)c(O)c1 [Caffeic acid],0%,0%,–
Oc1ccccc1O [Catechol],0%,0%,–
NCCc1ccc(O)c(O)c1 [Dopamine],0%,–,"Substrate specificity, relative activity of PSOMT1 [2]: 0%"
O=c1ccc2cc(O)c(O)cc2o1 [Esculetin],0%,0%,–
